From patent US11083793B2, “Epidermal growth factor receptor (EGFR) targeted photosensitizers” (Health Research, Inc., priority 2016, dated 2021)

Key:
ABCG2 [1] = molecular target: T1, ABCG2 (Homo sapiens, UniProt Q9UNQ0); assay: ABCG2 substrate specificity: PS uptake with/without Gleevec, UMUC3; type: cell-based; details: UMUC3 cells; PS 500 nM; Gleevec 5 μM; fluorescence
T1 construct: endogenous in cells; host or cells: UMUC3 bladder cancer cells
T1 sequence (Q9UNQ0 1-655): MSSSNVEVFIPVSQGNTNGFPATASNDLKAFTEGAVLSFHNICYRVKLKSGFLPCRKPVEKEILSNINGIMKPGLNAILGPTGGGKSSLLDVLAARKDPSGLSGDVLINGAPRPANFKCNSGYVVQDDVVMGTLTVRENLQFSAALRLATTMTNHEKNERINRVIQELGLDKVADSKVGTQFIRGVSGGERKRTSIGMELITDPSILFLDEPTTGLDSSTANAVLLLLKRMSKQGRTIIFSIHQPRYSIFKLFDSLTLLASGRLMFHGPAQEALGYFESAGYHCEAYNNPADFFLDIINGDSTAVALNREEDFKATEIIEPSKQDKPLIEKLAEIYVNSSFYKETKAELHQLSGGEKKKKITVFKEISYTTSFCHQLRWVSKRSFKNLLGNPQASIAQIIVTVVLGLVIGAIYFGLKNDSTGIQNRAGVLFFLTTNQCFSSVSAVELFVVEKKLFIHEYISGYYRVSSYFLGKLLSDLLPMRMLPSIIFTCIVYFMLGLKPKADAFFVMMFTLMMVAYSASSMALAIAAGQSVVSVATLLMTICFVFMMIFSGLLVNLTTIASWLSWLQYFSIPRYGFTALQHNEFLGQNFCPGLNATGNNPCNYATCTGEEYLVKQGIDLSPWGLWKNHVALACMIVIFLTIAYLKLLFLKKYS
From the text: (§1) T24 cells lack ABCG2 expression.
(§2) C1e. In contrast to PS 1 and 2, the PS- erlotinib conjugate 3 is not the substrate of ABCG2: The influence of PS as substrate for ABCG2 transport was observed by fluorescent microscopy. […] This information is very interesting as it could help to select an effective treatment option to cancer patients with and without expression of ABCG2 transporter.

ABCG2 [2] = assay: ABCG2 substrate specificity: PS uptake with/without Gleevec, T24; type: cell-based; details: T24 cells (lack ABCG2); PS 500 nM; Gleevec 5 μM; fluorescence
From the text: as §1, §2

ABCG2 [3] = molecular target: T1, ABCG2; assay: In vitro PDT efficacy with/without Gleevec (MTT), UMUC3; type: cell-based; details: UMUC3 cells
From the text: as §2

UMUC3 tumors [4] = assay: In vivo uptake in tumor, liver and skin (IVIS), UMUC3 tumors; parameters: species or system SCID mice; details: UMUC3 tumor model; 0.47 μmol/kg
Method: C1i. PS with and without erlotinib show high tumor-uptake and significant difference in their pharmacokinetic profiles in UMUC3 and T24 tumors implanted in SCID mice: The SCID mice bearing either UMUC3 or T24 tumors (4-5 mm size) were injected with the PS 30, and the corresponding erlotinib conjugates 6, 34 & 39 with and without iodine functionality. Among the iodinated analogs, the iodobenzyl group was introduced either at the bottom half of 5 or top half of the molecule 39, and were converted into the corresponding radioactive (^124I-) analogs for PET imaging. The non-radioactive analogs were injected in tumored mice (3 mice/group) at a dose of 0.47 μmol/kg), and the mice were imaged at regular time intervals. The dose was selected on the basis of the therapeutic dose of HPPH. The uptake of tumor, liver and skin was measured by IVIS system (3 mice group), and interesting pharmacokinetic profiles of the PS were observed (FIG. 8).
C1j. […] Therefore, the tumors were exposed to light at their optimal uptake time points respectively.

UMUC3 tumors [5] = assay: HPPH-PDT in combination with BCG, UMUC3 tumors; type: in vivo, mice; details: HPPH 0.47 μmol/kg in combination with BCG (1-1.5×10^6 CFU SQ weekly×3); 135 J/cm^2, 75 mW/cm^2 at 6 h
Method: For details see the text.
One hour after the PDT treatment, BCG was injected (1-1.5×10^6 CFU), SQ weekly×3 doses, and the day 30 data summarized in FIG. 11, are very encouraging.

HNSCC cells = assay: 3-D co-culture of HN-85-1-3 and tumor stromal cells; type: cell-based; details: 1600 nM, 24 h, then 48 h in medium
Method: The cells were washed free of PS and incubated for additional 48 h in medium. The fluorescence for CSFE stromal cells and PS fluorescence was recorded in an inverted fluorescent microscope.
The tumor specificity of the compounds was also confirmed in head & neck cancer using 3D culture system.

HN-85-1-3 cells = assay: Growth inhibition of EGF-dependent HNSCC cell cultures; type: cell-based; details: 3.2 μM, 72 h, RPMI+10% FBS; preliminary experiments
Method: HN-85-1-3 cells were cultured of 72 h in regular growth medium (RPMI+10% FBS) and containing 3.2 μM erlotinib or the indicated PSs. The cell density was photographically recorded at the beginning and end of the culture period. The cell-associated PSs were determined by fluorescence imaging.

Compound | uptake of PS on addition of Gleevec (ABCG2 [1]) | uptake of PS on addition of Gleevec (ABCG2 [2]) | substrate of ABCG2 (ABCG2 [3]) | PDT efficacy with and without Gleevec (ABCG2 [3]; MTT assay) | time of optimal/maximum tumor uptake post-injection (UMUC3 tumors [4]) | long-term cure compared to HPPH-PDT alone (UMUC3 tumors [5]) | retention by HNSCC cells in 3-D co-culture (HNSCC cells) | growth inhibition (HN-85-1-3 cells)
CCCCCCOC(C)c1c(C)c2cc3nc(c4c5[nH]c(cc6nc(cc1[nH]2)C(C)=C6CC)c(C)c5C(=O)C4)[C@@H](CCC(=O)O)[C@@H]3C (some centres unmarked) [HPPH, 2-(1-Hexyloxyethyl)-2-devinyl pyropheophorbide-a] | significantly increased | did not show any significant increase | substrates of ABCG2 | enhancement of PDT efficacy | 24 h | improved long-term cure | low retention | 
C#Cc1cccc(Nc2ncnc3cc(OCCOC)c(OCCOC)cc23)c1 [erlotinib] |  |  |  |  |  |  |  | cytostatic action
